Results on 1 compound are retold here after patent US5986131A, “RXR selective ligands” (Hoffmann-La Roche Inc., priority 1997, dated 1999).

“Also recorded” adds a separate entry of the source. Where two headings read alike, the source gives them in different places.

What all share (type): cell-based
For one test, the target named is T1, RARα (Homo sapiens, UniProt P10276).
T1 sequence (P10276 1-462): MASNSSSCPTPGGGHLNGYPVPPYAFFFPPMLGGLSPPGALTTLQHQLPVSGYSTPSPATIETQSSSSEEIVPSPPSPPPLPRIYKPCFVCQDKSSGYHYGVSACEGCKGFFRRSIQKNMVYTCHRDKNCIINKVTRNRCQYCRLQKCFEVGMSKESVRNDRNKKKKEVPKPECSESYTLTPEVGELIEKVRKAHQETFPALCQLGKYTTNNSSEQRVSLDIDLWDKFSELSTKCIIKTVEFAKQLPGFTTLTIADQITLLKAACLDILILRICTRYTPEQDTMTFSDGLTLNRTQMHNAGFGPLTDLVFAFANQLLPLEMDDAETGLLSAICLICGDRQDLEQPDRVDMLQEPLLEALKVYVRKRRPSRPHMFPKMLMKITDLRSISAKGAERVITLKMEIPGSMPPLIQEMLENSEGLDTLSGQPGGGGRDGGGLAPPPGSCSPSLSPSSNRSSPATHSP
Kind of test: RARα activation (transactivation). An excerpt:
Methods essentially as described in those publications were used to determine the binding and transactivation properties of retinoids reported in the Examples herein.

In another test the test system is mouse B cell. The test can be described thus: Inhibition of LPS-induced mouse B cell proliferation (3H-thymidine incorporation). On the procedure:
Single cell suspensions of mouse spleen were set up in culture in flatbottomed 96 well Microtiter trays, 0.2 ml/well of a 2×10^5 /ml cell suspension in IMDM supplemented with 10% foetal calf serum, HEPES, antibiotics and 50 μM 2-mercaptoethanol. The specific B cell mitogen E. coli lipopolysaccharide (DIFCO) (LPS) was added at 50μg/ml. Cultures were incubated at 37° C. in a humidified atmosphere and 5% CO2.
The retinoids to be tested were first titrated in triplicate from 10 nM to 10 μM and left throughout the whole culture period. […] Cyclosporin A (Sandoz AG) was used as a reference compound (from 1 nM to 1 μM).
The cultures were then harvested on glass fiber filters and the radioactivity imcorporated into DNA measured in a β-liquid scintillation counter (Betaplate, Wallac Oy, Turku, Finland).
The results are expressed as % of the response of untreated cultures. […] Retinoids were added to the cultures at the beginning of the culture period.
(Dividing cells build labelled thymidine or BrdU into new DNA.)

Another test has as its system human sebaceous cells. The test can be described thus: Antiproliferative activity on human sebocytes in vitro. On the procedure:
Sebaceous cells were isolated from adult human sebaceous glands by a combination of enzymatic and mechanical methods (Doran et al., 1991). The cells were cultured in Iscove's medium containing 10% fetal calf serum and 4 μg/ml dexamethasone on a layer of growth-arrested 3T3 mouse fibroblasts. Cells were plated in medium without the test compound and then given test compound in fresh medium 24-48 hours after the initial plating. The cultures were given fresh medium, containing the test compound, every 48 hours. On the day of harvesting, the cultures were rinsed with 0.03% EDTA in PBS, to remove only the 3T3 fibroblasts. followed by incubation in 0.05% trypsin/0.03% EDTA. The cells were suspended, mixed vigorously to prepare a single cell suspension and counted in a hemocytometer.
Stock solutions of compounds were made up as 10^-2 M solutions in 100% DMSO and stored at -20° C. in the dark. Compounds in solution were brought to room temperature and used by diluting directly into complete medium to the appropriate concentration.
The compounds of Example 12, Example 2, and Example 4 were tested for their effects on inhibiting the proliferation of first passage human sebaceous cells in vitro after 10 days of exposure to drug.

In the case of `CC1=C(/C=C/C2=C(/C=C/C(C)=C/C(=O)O)CCCC2)C(C)(C)CCC1` [Example 4, (2E,4E)-3-Methyl-5-(2-((E)-2(2,6,6-trimethyl-1-cyclohexen-1-yl)ethenyl)-1-cyclohexen-1-yl)-2,4-pentadienoic acid], the EC50 was above 10000 nM on RARα (Table 1, read-out: Activation ED50, RARα) and above 10000 nM on RARα (Table 2, read-out: RARα activation ED50). The “potency relative to all-trans RA” value in the test on mouse B cell (LPS induced mouse B cell proliferation) is on record as 1/100. Moreover, the IC50 in the test on mouse B cell (Mus musculus, B-cell, 72 h, alone, FIG. 4, day 3) was 100 nM; with human sebaceous cells (Homo sapiens, 240 h, first passage cells, 10 days of exposure, read-out: Inhibition of human sebaceous cell proliferation in vitro IC50), above 1000 nM. Besides, the “effect on B cell response at low doses” value in the test with mouse B cell (day 4, low doses (=IC50 at day 3)) is on record as “slightly enhancing the response”. Further, in the test with mouse B cell (in combination with all-trans RA), the “potentiation of inhibitory activity of all-trans RA on mouse B cell proliferation” value was “potentiated the inhibitory activity of all-trans RA; also recorded: potentiates the effect of all-trans RA”. Also, the “inhibition by combination with 1 nM RA” value in the test with mouse B cell (with 1 nM RA, day 4, FIG. 6) is recorded as “inhibition on the order of that induced by 10 nM RA”. For the same compound, the “potentiation of effect of 1 nM all-trans RA” value in the test on mouse B cell (with 1 nM all-trans RA, day 3, FIG. 5) is given as “potentiation of the effect of 1 nM RA to the level observed with 10 nM RA”. Moreover, in the test with mouse B cell (with all-trans RA), the “excess RXR ligand over all-trans RA for potentiation” value was in the range of 10 to 30 fold. The “magnitude of the potentiation” value in the test with mouse B cell (with all-trans RA) is listed as “roughly tenfold”. In the test on human sebaceous cells, the “inhibition of sebocyte proliferation (in words)” value is reported as “poor dose response curve; also recorded: much weaker than 13-cis-retinoic acid”.
